Assay results as given in EP4691487A1, “METHOD FOR INCREASING CONCENTRATION OF MACROMOLECULAR DRUG IN TUMOR TISSUE” (priority 2023, dated 2024).

What was measured:
PC-07-006 model = assay: Anti-human IgG secondary antibody staining of TRODELVY bound to tumor cells in vivo (Example 5); parameters: species or system BALB/c nude mice; conditions: tissue samples from Example 4
Text: The experimental method was the same as in Example 3. The experimental tissue samples were from Example 4. The anti-human IgG secondary antibody was able to recognize the binding of TRODELVY to tumor cells in vivo. […] Example 6: In vivo pharmacological study of the tumor infiltration level of test article, fluorescein Cy5.5-labeled Hanquyou( ? ) antibody (H-Cy5.5), in a subcutaneous xenograft tumor model of human gastric cancer NCI-N87 cells in Balb/c-nude mice after administration of IN10018

[1] = tested on: human pancreatic cancer PC-07-0067 model; assay: Anti-tumor efficacy in pancreatic cancer PC-07-0067 subcutaneous xenograft (PDX) model (Example 4); format: in vivo, BALB/c nude mice; conditions: TRODELVY 3 mg/kg IV BIW
Text: Establishment of PDX model: The human pancreatic cancer PC-07-0067 model was initially established from a surgically resected clinical sample, which was designated as P0 after being inoculated into nude mice. Inoculation of tumor tissue from P0 into the next generation of mice is referred to as P1, and so on for subsequent serial passages in nude mice. FP3 tumors were resuscitated from P2 generation tissue, and the next generation from FP3 was designated as FP4, and so on.
Tumor Inoculation: A 20-30 mm^3 PC-07-0067 FP5 tumor tissue piece was subcutaneously inoculated on the right flank of each mouse for tumor growth. The mice were randomized for dosing when the mean tumor volume reached approximately 100-150 mm^3.
Experimental indicator: The experimental indicator is to examine whether tumor growth is inhibited, delayed or cured. Tumor diameter is measured with a vernier caliper twice a week. The formula for calculating tumor volume is: V = 0.5a × b^2, a and b represent the long diameter and short diameter of the tumor, respectively.
The anti-tumor efficacy of a compound is evaluated using the TGI(%) or tumor proliferation rate (T/C)(%). TGI(%) reflects the rate of tumor growth inhibition.
Tumor proliferation rate T/C (%): The calculation formula is as follows: T/C(%) = Ti/Vi × 100 %, wherein Vi is the mean tumor volume of the solvent control group at a certain measurement, and Ti is the mean tumor volume of the dosing group at the same measurement.

Q: Which antibody-tumor cell binding (PC-07-006 model) does the source give for TRODELVY here?
A: The antibody-tumor cell binding was “significant antibody-tumor cell binding”.

Q: And the T/C ([1]; after 14 days of dosing, T/C = Ti/Vi, IN10018 12.5 mg/kg PO QD)?
A: Its T/C is 27.95%.

Q: And the TGI ([1]; after 14 days of dosing, IN10018 12.5 mg/kg PO QD)?
A: The TGI was 78.91%.

Q: And the mean tumor volumes ([1]; day 14, IN10018 12.5 mg/kg PO QD (tartrate salt weighed))?
A: Its mean tumor volumes is 423 mm^3.
